This is an account of results in publication PMC5342262, “Synthesis, in vitro and in vivo evaluation of 3β-[^18F]fluorocholic acid for the detection of drug-induced cholestasis in mice” (PLoS ONE, 2017).

Data set [1] can be described thus: LogD of [^18F]FCA in octanol/PBS pH 7.4. In kind it is physicochemical. The note with it: octanol/PBS 50:50 v:v, n = 3. The method, then: 1 MBq of [^18F]FCA was used to spike an octanol/PBS 50:50 v:v pH 7.4 mixture in a test tube. After mixing and centrifugation (5 min; 1100 g), aliquots were taken from each layer and radioactivity was measured in a NaI (Tl) scintillation counter (Capintec; Ramsey, NJ, USA). The LogD value of [^18F]FCA was calculated as the logarithm of the ratio of counts in octanol and PBS.

Data set [2] can be described thus: Stability of [^18F]FCA in its PBS formulation. It counts as physicochemical. Conditions: PBS pH 7.4 formulation; room temperature.
A short description of data set [3]: Dynamic PET of [^18F]FCA in wild-type FVB mice. It counts as in vivo. The method, then:
Food and water was provided ad libitum. Animals were fasted overnight before the PET-scan.
A CT-scan was acquired for anatomical correlation.
In vivo characteristics of [^18F]FCA were investigated by a two hour dynamic PET scan with 30 MBq [^18F]FCA, injected intravenously (n = 3). Four and six hours post-injection, a 30 minute static scan was performed.
P-values ≤ 0.05 were considered significant.

Data set [4] has as its system hepatobiliary transport of [^18F]FCA. The data set can be described thus: Dynamic PET of [^18F]FCA in control, rifampicin and bosentan treated FVB-mice. Conditions: female, FVB, mouse, in vivo. The method, then:
Hepatobiliary transport of the tracer was evaluated in female wild-type FVB mice (5 weeks old, Charles River). The animals were housed in accordance with European Ethics Committee guidelines. The animal studies were approved by the Animal Experimental Ethical Committee of Ghent University (ECD 15/69). Food and water was provided ad libitum. Animals were fasted overnight before the PET-scan.
Mice were anesthetized with 1.5 v:v % isoflurane in 100% O2 for the duration of the experiment. An intravenous polyethylene line was placed in the lateral tail vein. The animals were placed in the small animal PET/CT-scanner (FLEX Triumph II small animal PET/CT-scanner; PET field of view: 7.5 cm axial; 1.3 mm spatial resolution; TriFoil Imaging) on a heated bed. A CT-scan was acquired for anatomical correlation.
The interaction of rifampicin (Sigma Aldrich) and bosentan (Activate Scientific) on in vivo [^18F]FCA transport was examined. FVB-mice were divided into 3 different groups (n = 3 per group): rifampicin, bosentan, and a control DMSO vehicle treated group). Both drugs were administered in doses of 100 mg/kg, intra-peritoneal in DMSO:PBS 70:30 v:v (rifampicin) or DMSO (bosentan) 1 hour before the start of the PET-scan. An additional dose (25 mg/kg for rifampicin in DMSO:PBS 40:60 v:v, 50 mg/kg for bosentan in DMSO) was co-injected intravenously with the tracer.
For each scan, 10 MBq of [^18F]FCA was administered intravenously and a 1 hour dynamic scan was started. Immediately after the dynamic scan, 18 MBq [^18F]FDG was injected intravenously. After 20 minutes, a 20 minutes static scan was taken.
PET-data were obtained in list-mode and were iteratively reconstructed (50 iterations) in frames of 15 seconds for the first 10 minutes, followed by 50 frames of 1 minute. ROI’s were drawn manually over liver, gallbladder and intestines using PMod software. A ROI was drawn in the left ventricle on the static [^18F]FDG scan to obtain an image-derived arterial blood input curve. The uptake of [^18F]FCA in arterial blood, liver, gallbladder and intestines was expressed as a % injected dose (% ID) and normalized for the weight of a 20 gram mouse. Time-activity curves (TAC’s) were generated using these values.
AUC, maximum % ID, and time to peak values were determined for the TAC’s with Graphpad Prism v3.00. Differences between 2 groups were determined with the non-parametric Mann-Whitney U test. P-values ≤ 0.05 were considered significant.

A short description of data set [5]: Stability of [^18F]FCA in mouse serum.
Data set [6] in a line: Stability/metabolization of [^18F]FCA with primary mouse hepatocytes. The note with it: mouse.
The subject of data set [7] is primary mouse hepatocytes. Described as above. Conditions: 37°C.

“And” between values parts separate entries of the source, which are not always exact repeats. Equal entries are not always repeated. “Also recorded” adds a separate entry of the source.

By logD is commonly meant the decadic logarithm of the distribution of all forms, ionised or not, between an organic phase and buffer at a given pH. A low value points to lower lipophilicity. In data set [1], `C[C@H](CCC(=O)O)[C@H]1CC[C@H]2[C@@H]3[C@H](O)C[C@@H]4C[C@@H]([18F])CC[C@]4(C)[C@H]3C[C@H](O)[C@]12C` [[^18F]FCA, 3β-[^18F]Fluorocholic Acid] displayed a logD of 1.19 ± 0.1. In addition, the “time stable in PBS formulation” value in data set [2] is “at least 6 hours”. For the same molecule, in data set [3] (IV, n = 3), the “AUC gallbladder & intestines % injected dose” value was found to be 4105 ± 36 % ID.min; the “Time to peak liver” value was 4.5 min and 4.5 ± 0.5 min. Also, the “Max % injected dose liver” value in data set [3] (IV, n = 3, normalized for a 20 g mouse) is 71.8 % ID and 71.8 ± 1.2 % ID. In addition, the “uptake in urinary bladder or other organs” value in data set [3] (PET/CT images up to 6 hours post-injection) was “no uptake in other organs than liver, gallbladder and intestines”. Also, the “radioactivity in gallbladder and intestines” value in data set [3] (after 1 hour) was 93.3 ± 6.0 % ID and 93.3 % ID. Moreover, in data set [4], the “AUC arterial blood % injected dose” value is 1.909 ± 0.572 % ID.min, the “AUC gallbladder & intestines % injected dose” value was determined as 3718 ± 182 % ID.min and the “Time to peak liver” value worked out at 5.5 ± 1.1 min. In addition, in data set [4] (iv), the “Max % injected dose liver” value turned out to be 71.2 ± 3.5 % ID. Moreover, the “time stable in presence of mouse serum” value in data set [5] (37°C) was “at least 1 hour”. Moreover, the “degradation or metabolization products in mouse serum” value in data set [5] (37°C, 5, 10, 30 and 60 minutes) was “No degradation or metabolization products”. Further, in data set [5] (mouse), the recovery at 5 min, 37 MBq/mL was found to be 100%; the recovery at 10 min, 37 MBq/mL is 100%; the recovery at 30 min, 37 MBq/mL was 100%; the recovery at 60 min, 37 MBq/mL stood at 100%. In data set [6], this molecule showed a recovery at 5 min, 37 MBq/mL of 100%; a recovery at 10 min, 37 MBq/mL of 100%; a recovery at 30 min, 37 MBq/mL of 100%; a recovery at 60 min, 37 MBq/mL of 100%. In data set [7], the “time stable in presence of primary mouse hepatocytes” value is “at least 1 hour”. Besides, the “degradation or metabolization products with primary mouse hepatocytes” value in data set [7] (5, 10, 30 and 60 minutes) is “metabolically stable; also recorded: No degradation or metabolization products”.
